Data on 5 compounds can be found in patent US20060258647A1, “Treatment of maladaptive substance use with cholecystokinin (CCK) antagonists” (The Regents of the University of California, priority 2005, published 2006).

For data set [1] the following is noted: Jackson et al., 1994; cited from earlier work.
The subject of data set [2] is Sprague-Dawley rats. Nature of the data set: Expression of morphine CPP after microinjection into anterior or posterior nucleus accumbens (NAcc). Conditions: CCK-4 10 ng, CCK-8 100 ng (legend 10 ng), raclopride 4 μg; for expression of morphine CPP, microinjected independently into anterior NAcc: L-365, 260 1 ng (p=0.002), SCH-23390 2 μg; for expression of morphine CPP, microinjected independently into anterior NAcc / expression of morphine CPP, microinjected independently into posterior NAcc: lorglumide 15 ng; for expression of morphine CPP, microinjected independently into posterior NAcc: L-365, 260 1 ng (p=0.021), SCH-23390 2 μg (p=0.049); for effect of co-injection on the L-365, 260 effect (attenuation) on morphine CPP, anterior NAcc: co-injected with L-365, 260 into anterior NAcc; for effect of co-injection on the L-365, 260 effect (potentiation) on morphine CPP, posterior NAcc: co-injected with L-365, 260 into posterior NAcc. The format is in vivo, rat. On the procedure: (§1) 68 male Sprague-Dawley rats (Charles River, Wilmington, Mass.) weighing 275-300 grams at the onset of the study were individually housed in a temperature controlled environment (70° F.) and kept on a 12 hour light/dark cycle. Rat chow and water were available ad libitum. Animals were tested at the same time during their light cycle each day. All experimental protocols were approved by the Institutional Animal Care and Use Committee and were conducted in accordance with the Guide for the Care and Use of Laboratory Animals (N1H). 22 rats were used for systemic injections and the remaining rats were cannulated for NAcc microinjections.
Animals were anesthetized with a ketamine-xylazine mixture and maintained on isoflurane (0.5 liter/min) as needed for the duration of surgery. Animals were placed in a stereotaxic frame and were implanted with bilateral 26-gauge stainless steel chronic guide cannulae (Plastics One, Roanoke, V A) into either the Anterior (AP, 2.2; ML, ±1.1; DV, −5.5) or Posterior (AP, 1.2; ML, ±1.1; DV, −5.5) NAcc. Cannulae were secured to the skull with dental cement. At the end of the surgical procedure, animals were treated with penicillin and topical antibiotics. A stainless steel dummy cannula (Plastics One) was inserted into each guide cannula and remained in place when the guide cannulae were not in use. Animals were allowed a 1-week recovery period prior to behavioral testing.
(§2) Animals were trained in 3 chamber place conditioning boxes (Med Associates) in which 2 chambers (28×21×21 cm) that differed in color (one black, one white), light level, and texture were separated by a neutral gray chamber (12×21×21). During the initial baseline period, animals were placed in the central chamber and were allowed to freely explore all 3 chambers for a period of 30 minutes. Beam breaks, entries, and time spent in each chamber were automatically recorded using infrared beams. […] During each conditioning session, animals were injected with either morphine or saline and were then immediately confined to one of the two larger chambers for 60 minutes. Rats received 2 conditioning sessions per day for a period of 4 days. Conditioning sessions were separated by a minimum period of 5 hours. Animals were tested for expression of conditioned place preference 1 day after the final conditioning session. Drug side and order were counter-balanced. […] Systemic L-365, 260 was administered 30 minutes before the onset of CPP testing.
All injection sites were based on the atlas of Paxinos and Watson (1998). Bilateral injections were made into either the Anterior (AP, 2.2; ML, +1.1; DV, −5.5) or Posterior (AP, 1.2; ML, ±1.1; DV, −5.5) NAcc. Each injection was made using a 1 μl syringe (Hamilton, Reno, Nev.) attached to 20 cm of PE 50 tubing connected to a 33-gauge injection cannula (Plastics One). Microinjections were given at a rate of 0.5 μl per minute using a syringe pump (kd Scientific, Holliston, M A). A volume of 0.5 μl was injected into each side of the NAcc. Injection cannulae extended 2 mm beyond guide cannulae and were left in place for 1 minute following microinjections to minimize the backflow of drug solution. 10 minutes after microinjection was completed, animals were placed into the central CPP chamber and allowed to explore for a period of 30 minutes. Animals received a maximum of four bilateral NAcc microinjections. The number of microinjections each animal received was determined by the persistence of place preference. […] Microinjection drug order was counterbalanced and began a minimum of one day following the test for expression of morphine CPP. Animals were tested for baseline expression of morphine CPP 24 hours following each microinjection to ensure the return to pre-injection baseline. At the conclusion of the experiment, animals were anesthetized with pentobarbital and perfused intracardially through the ascending aorta with 0.1M phosphate buffered saline followed by 10% formalin. […]

A further data set has as its system humans. Conditions: literature (Murphy et al., 1993 and others); cited from earlier work.
The next data set relates to Rats. Description: Ethanol consumption / reinstatement with foot shock. The format is in vivo, rat. On the procedure:
Rats (n=18) were administered 3 daily doses of systemic L-365 (1 mg/kg) prior to a one-hour ethanol (10%) access session. On the second day of L-365, 260 administration, animals were administered 0.8 mA of shock (0.5 seconds every 40 seconds for a period of 15 minutes) in ethanol access chambers directly prior to the onset of their one-hour access session. […] This was a randomized cross over design with each animal serving as its own control.
L-365, 260 had no effect on ethanol consumption when shock was administered during extinction (n=12). Animals were administered 3 daily doses of systemic L-365, 260 after ethanol consumption was extinguished. On the second day of L-365, 260 administration, animals were administered 0.8 mA of shock (0.5 seconds every 40 seconds for a period of 15 minutes) in the ethanol access chambers directly prior to the onset of their one-hour extinction session. This was a randomized cross over design with each animal serving as its own control.
L-365 had no effect on ethanol reinstatement when shock was administered on the first day of re-initiation of ethanol access (n=12). Animals were administered 3 daily doses of systemic L-365, 260 after ethanol consumption was extinguished. On the first day of L-365, 260 administration, animals were administered 0.8 mA of shock (0.5 seconds every 40 seconds for a period of 15 minutes) in the ethanol access chambers directly prior to the onset of their one-hour reinstatement session. This was a randomized cross over design with each animal serving as its own control.

Data set [3] relates to Sprague-Dawley rats. Nature of the data set: Expression of morphine conditioned place preference (CPP) after systemic administration. The format is in vivo, rat. The settings on record: 1 mg/kg systemic (i.p.). On the procedure:
as §1
as §2, with “testing. […]” for “testing.”
*Difference scores were calculated by subtracting the time spent in the saline paired chamber from the time spent in the morphine paired chamber during a test session. […]

“Also recorded” adds a separate entry of the source.

In the case of `Cc1cccc(NC(=O)N[C@@H]2N=C(c3ccccc3)c3ccccc3N(C)C2=O)c1` [L-365, 260, (3R-(+)-2,3-dihydro-1-methyl-2-oxo-5-phenyl-1H-1,4-benzodiazepin-3-yl)-N′-(3-methylphenyl)urea], in data set [1], the “differentiation from saline in animal discrimination studies” value is given as “cannot be differentiated from saline”. Moreover, the “expression of morphine CPP, microinjected independently into anterior NAcc” value with Sprague-Dawley rats [2] is reported as “attenuates”. Also, the “expression of morphine CPP, microinjected independently into posterior NAcc” value with Sprague-Dawley rats [2] is reported as “potentiates”. For the same compound, the “side effects on administration to humans” value in the data set with humans was “no significant side effects”. Further, in the data set with Rats (3 daily systemic doses 1 mg/kg before one-hour ethanol (10%) access, 0.8 mA shock on second day, n=18, vs saline controls), the “ethanol consumption on the two days following shock” value is listed as “consumed significantly less ethanol than saline controls”. Besides, the “ethanol consumption when shock was administered during extinction” value with Rats (3 daily systemic doses after ethanol consumption was extinguished, shock on second day, n=12) was “had no effect”. Besides, the “ethanol reinstatement when shock was administered on the first day of re-initiation of ethanol access” value in the data set on Rats (3 daily systemic doses after extinction, shock on first day, n=12) was “had no effect”. Further, the “expression of morphine CPP” value with Sprague-Dawley rats [3] (after acquisition of CPP, tested immediately after injection, p=0.006) is on record as “attenuates”; in the data set on Sprague-Dawley rats [3] (tested 24 hours after injection, p=0.0009), “attenuates”; with Sprague-Dawley rats [3] (tested 72 hours after injection, p=0.004), “attenuates”.

With `CCCCCN(CCCCC)C(=O)C(CCC(=O)O)NC(=O)c1ccc(Cl)c(Cl)c1` (stereo not shown) [lorglumide], in the data set on Sprague-Dawley rats [2], the “expression of morphine CPP, microinjected independently into anterior NAcc” value is reported as “has no effect” and the “expression of morphine CPP, microinjected independently into posterior NAcc” value is recorded as “has no effect”. In the data set on Sprague-Dawley rats [2] (listed as Lorglumide), the “expression of morphine CPP, microinjected independently into anterior NAcc” value is “had no effect” and the “expression of morphine CPP, microinjected independently into posterior NAcc” value is reported as “had no effect”.

In the case of `CCN1CCC[C@H]1CNC(=O)c1c(O)c(Cl)cc(Cl)c1OC` [raclopride], in the data set on Sprague-Dawley rats [2], the “expression of morphine CPP, microinjected independently into anterior NAcc” value was “has no effect”; the “effect of co-injection on the L-365, 260 effect (attenuation) on morphine CPP, anterior NAcc” value (shortened to “effect of co-injection … anterior NAcc”) was “reverse the effects of L-365, 260”; the “effect of co-injection on the L-365, 260 effect (potentiation) on morphine CPP, posterior NAcc” value (“effect of co-injection … posterior NAcc” below) was “reverse the effects of L-365, 260”; the “expression of morphine CPP, microinjected independently into posterior NAcc” value was “has no effect”. For the same compound, in the data set with Sprague-Dawley rats [2] (listed as Raclopride), the “expression of morphine CPP, microinjected independently into anterior NAcc” value is listed as “had no effect” and the “expression of morphine CPP, microinjected independently into posterior NAcc” value was “had no effect”.

As for CCK-4, in the data set with Sprague-Dawley rats [2], the “expression of morphine CPP, microinjected independently into anterior NAcc” value is on record as “neither of which had an effect; also recorded: neither of which has an effect”; the “effect of co-injection … anterior NAcc” value is given as “reversed”; the “effect of co-injection … posterior NAcc” value was “reversed”; the “expression of morphine CPP, microinjected independently into posterior NAcc” value is “neither of which had an effect; also recorded: neither of which has an effect”.

As for “CCK-8: cholecystokinin peptide, CCKB receptor ligand precursor, obtained from Research Biochemicals”, in the data set on Sprague-Dawley rats [2], the “expression of morphine CPP, microinjected independently into anterior NAcc” value is on record as “neither of which had an effect; also recorded: neither of which has an effect”; the “effect of co-injection … anterior NAcc” value is “reversed”; the “effect of co-injection … posterior NAcc” value is “reversed”; the “expression of morphine CPP, microinjected independently into posterior NAcc” value is recorded as “neither of which had an effect; also recorded: neither of which has an effect”.
